This is an account of results in BindingDB's records for doi:10.7270/Q2TX3CTT (Broad Institute, 2010).

Structures can show the parent of a compound that is named as a salt.

In this assay the target is Glycogen synthase kinase-3 beta (Homo sapiens, UniProt P49841). The experiment in a line: GSK3beta kinase inhibitor potency, dose response, biochemical, luminescence, cell-free homogeneous, retest (AID 434954).
Sequence of Glycogen synthase kinase-3 beta (P49841 whole entry): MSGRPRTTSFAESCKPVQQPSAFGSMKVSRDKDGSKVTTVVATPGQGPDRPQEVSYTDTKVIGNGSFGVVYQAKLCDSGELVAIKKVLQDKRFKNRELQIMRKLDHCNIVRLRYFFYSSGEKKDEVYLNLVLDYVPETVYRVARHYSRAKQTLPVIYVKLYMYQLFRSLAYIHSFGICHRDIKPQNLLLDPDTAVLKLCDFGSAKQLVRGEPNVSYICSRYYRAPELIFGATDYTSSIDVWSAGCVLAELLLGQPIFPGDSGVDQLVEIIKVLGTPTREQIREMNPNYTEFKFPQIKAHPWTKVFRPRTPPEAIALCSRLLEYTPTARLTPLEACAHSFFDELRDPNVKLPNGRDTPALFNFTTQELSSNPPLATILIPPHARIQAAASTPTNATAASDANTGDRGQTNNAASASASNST
Usually EC50 stands for the midpoint of the concentration-response curve. Regarding `COc1ccc(OC)c(Nc2nc(NCCC(C)C)nc(N)c2[N+](=O)[O-])c1` [4-N-(2,5-dimethoxyphenyl)-2-N-(3-methylbutyl)-5-nitropyrimidine-2,4,6-triamine], the EC50 is above 300 µM.

Compound `COc1ccc(-c2noc(CSc3nnc(-c4ccccc4)n3C)n2)cc1` [3-(4-methoxyphenyl)-5-[(4-methyl-5-phenyl-1,2,4-triazol-3-yl)sulfanylmethyl]-1,2,4-oxadiazole] showed an EC50 above 300 µM.

`Cc1ccc(NS(=O)(=O)c2cccc(C(=O)NN=Cc3c(C)nn(-c4ccccc4)c3N3CCCC3)c2)c(C)c1` [MLS000394744] returned an EC50 above 300 µM.

`Cc1ccccc1-n1nnc2c(=O)oc3ccccc3c21` [1-(2-methylphenyl)chromeno[3,4-d]triazol-4-one] displayed an EC50 above 300 µM.

Regarding `CCCCn1nc(NC(=O)CC(C)C)c2cc3cc(OC)ccc3nc21` [N-(1-butyl-6-methoxy-3-pyrazolo[3,4-b]quinolinyl)-3-methylbutanamide], the EC50 is above 300 µM.

`COCCn1c(SCC(=O)NCc2ccc(F)cc2)nc2ccccc21` [N-[(4-fluorophenyl)methyl]-2-[1-(2-methoxyethyl)benzimidazol-2-yl]sulfanylacetamide] came in with an EC50 above 300 µM.

For the compound `CCCn1nc(NC(=O)c2cccs2)c2cc3ccccc3nc21` [Thiophene-2-carboxylic acid (1-propyl-1H-pyrazolo[3,4-b]quinolin-3-yl)-amide], the EC50 was above 300 µM.

`CCNc1nc(N)nc(-c2cc(Cl)ccc2OC)n1` [MLS000538218]: the EC50 was above 300 µM.

As to `Cc1cc(Br)ccc1NC(=O)CN1C(=O)CCC1=O`, the EC50 was above 300 µM.

Take `CCC(=NNC(=S)Nc1cccc(C)c1)c1ccccc1`: the EC50 was above 300 µM.

For the compound `O=C1OCCC1Sc1nnc(-c2ccc(O)cc2)o1` (stereo not given) [3-[[2-(4-oxo-1-cyclohexa-2,5-dienylidene)-3H-1,3,4-oxadiazol-5-yl]thio]-2-oxolanone], the EC50 was 14.3 µM. This counts as double-digit micromolar.

As for `c1csc(C2=Nn3c(nnc3-c3ccncc3)SC2)c1`, the EC50 was 0.735 µM.

Consider `COc1ccc(OC)c(C2Nc3ccccc3N=C3CC(C)(C)CC(=O)C32)c1` (stereo not given) [SMR000515998], for which the EC50 was above 300 µM.

`CC1CCN(c2oc(-c3ccccc3Cl)nc2C#N)CC1` [SMR000041709] registered an EC50 above 300 µM.

Consider `COc1ccc(/C=C2/SC(NS(=O)(=O)Cc3ccccc3)=NC2=O)cc1OC` [N-[(5E)-5-[(3,4-dimethoxyphenyl)methylidene]-4-oxo-2-thiazolyl]-1-phenylmethanesulfonamide], for which the EC50 is above 300 µM.

Compound `O=C(Cc1ccccc1)Nc1ccc(N2CCOCC2)cc1` [MLS000707957] gave an EC50 above 300 µM.

Turning to `CNC(=O)NC(=O)CSc1nc(-c2cccs2)c(C#N)c(=O)[nH]1` [2-[(5-cyano-4-oxo-6-thiophen-2-yl-1H-pyrimidin-2-yl)thio]-N-(methylcarbamoyl)acetamide], a half-maximal effect (EC50) was put at 2.05 µM.

With `CC1CC(=O)Nc2ccc([N+](=O)[O-])cc2N1C` (stereo not given) [SMR000207335], the EC50 was above 300 µM.

Regarding `COc1cc(CN=O)ccc1Oc1ccc([N+](=O)[O-])cc1[N+](=O)[O-]` [N-[[4-(2,4-dinitrophenoxy)-3-methoxyphenyl]methylidene]hydroxylamine], the EC50 was above 300 µM.

With `Nc1nc(Nc2ccccc2F)nc(NCCO)c1[N+](=O)[O-]` [2-[6-Amino-2-(2-fluoro-phenylamino)-5-nitro-pyrimidin-4-ylamino]-ethanol], the response was half-maximal at 15.6 µM (EC50).

With `c1ccc(CNCC2COc3ccccc3O2)cc1` (stereo not given) [Benzyl-(2,3-dihydro-benzo[1,4]dioxin-2-ylmethyl)-amine], the EC50 was above 300 µM.

Regarding `CCN1CCN(c2c(C=O)c(Cl)nc3ccc(OC)cc23)CC1`, the EC50 was 5.67 µM. In other words, the single-digit micromolar range.

For `CCC(C)NC(=O)CNC(=S)N(CCCN1CCOCC1)Cc1cccs1` (stereo not given) [N-butan-2-yl-2-[[3-morpholin-4-ylpropyl(thiophen-2-ylmethyl)carbamothioyl]amino]ethanamide], the EC50 is above 300 µM.

In turn, `CC(C(=O)NCc1ccco1)n1cc([N+](=O)[O-])cn1` (stereo not given) [N-(2-furylmethyl)-2-(4-nitro-1H-pyrazol-1-yl)propanamide] displayed an EC50 above 300 µM.

Regarding `COC(=O)CSc1ccc2nnc(-c3ccc(OC)c(OC)c3)n2n1`, the EC50 was above 300 µM.

Regarding `O=C(NC1CCCCC1)C(c1ccc(F)cc1)N(Cc1ccccc1)C(=O)CN1C(=O)c2ccccc2S1(=O)=O` (stereo not given) [N-cyclohexyl-2-(4-fluorophenyl)-2-[[1-oxo-2-(1,1,3-trioxo-1,2-benzothiazol-2-yl)ethyl]-(phenylmethyl)amino]acetamide], the EC50 is above 300 µM.

Consider `OC(c1ccccc1)c1ccncc1` (stereo not given) [phenyl(pyridin-4-yl)methanol], for which the EC50 was above 300 µM.

On to `CN1CCc2[nH]c3ccc(C(=O)NN)cc3c2C1` [SMR000131639], for which the EC50 is above 300 µM.

Consider `Cc1cc2c(=O)oc(-c3ccc(F)cc3)nc2s1`, for which the EC50 is above 300 µM.

The compound `CC(C)c1ccc(C=NNC(=O)c2nnn(-c3nonc3N)c2CN2CCOCC2)cc1` [SMR000646507] registered an EC50 above 300 µM.

The compound `O=C(Cc1sc(N2CCCCC2)nc1O)Nc1cccc(C(F)(F)F)c1` [MLS000570409] registered an EC50 above 300 µM.

For the compound `COc1cccc(C(=O)Nc2nc3ccccc3s2)c1` [N-Benzothiazol-2-yl-3-methoxy-benzamide], the EC50 was above 300 µM.

The compound `Cc1coc2cc3oc(=O)c(CCC(=O)NCCCN4CCCC4=O)c(C)c3cc12` [3-(3,5-dimethyl-7-oxo-6-furo[3,2-g][1]benzopyranyl)-N-[3-(2-oxo-1-pyrrolidinyl)propyl]propanamide] had an EC50 above 300 µM.

Compound `O=C(Nc1ccsc1C(=O)NC1CC1)c1ccccc1` [MLS000546913] showed a 50% effective concentration (EC50) of 9.98 µM.

In turn, `COc1ccc(N2CC(C(=O)Nc3cc(C)ccn3)CC2=O)cc1` (stereo not given) [1-(4-methoxyphenyl)-N-(4-methylpyridin-2-yl)-5-oxopyrrolidine-3-carboxamide] returned an EC50 of 46.6 µM.

Take `CCCc1cc(=O)[nH]c2nnc(SCC(=O)Nc3nccs3)n12` [2-[(7-oxidanylidene-5-propyl-1H-[1,2,4]triazolo[4,3-a]pyrimidin-3-yl)sulfanyl]-N-(1,3-thiazol-2-yl)ethanamide]: the EC50 is above 300 µM.

Regarding `CCOc1ccc(NC(=O)COC(=O)c2ccc3c(c2)C(=O)N(CCc2ccccc2)C3=O)cc1` [SMR000261375], the EC50 was above 300 µM.

For `COc1ccc2oc(C)c(C(=O)c3ccc(C)cc3)c2c1` [(5-methoxy-2-methyl-3-benzofuranyl)-(4-methylphenyl)methanone], the EC50 is above 300 µM.

In turn, `O=C1C2C3C=CC(C3)C2C(=O)N1CCCCCCN1C(=O)C2C3C=CC(C3)C2C1=O` (stereo not given) [SMR000283963] had a half-maximal effective concentration (EC50) above 300 µM.

Compound `Cc1onc(-c2ccccc2Cl)c1C(=O)NNC(=O)c1ccc(F)cc1` [MLS001223650] registered an EC50 above 300 µM.

`Nc1nonc1-n1nnc(C(=O)NN=Cc2ccccc2Cl)c1CN1CCOCC1` registered an EC50 of 60.5 µM.

Consider `CC(C)N1C(=O)C(=CNCc2cccnc2)C(=O)NC1=S` [1-Isopropyl-5-[1-[(pyridin-3-ylmethyl)-amino]-meth-(E)-ylidene]-2-thioxo-dihydro-pyrimidine-4,6-dione], for which the EC50 was above 300 µM.

Regarding `Nn1c(SCc2cccc(Br)c2)nnc1-c1ccncc1` [3-(3-Bromo-benzylsulfanyl)-5-pyridin-4-yl-[1,2,4]triazol-4-ylamine], the EC50 is above 300 µM.

The compound `Nc1nonc1-n1nnc(C(=O)NN=Cc2ccc(Cl)cc2Cl)c1CN1CCCCC1` [MLS000950038] showed an EC50 above 300 µM.

Take `Fc1ccc(CSc2nnc(-c3cccs3)o2)cc1` [SMR000003242]: the EC50 is above 300 µM.

The compound `CC1(C)CC(=O)C=C(Nc2ccc(F)cc2F)C1` had an EC50 above 300 µM.

For the compound `Cc1cc(OCC(O)CNC(C)c2ccccc2)ccc1C(C)C` (stereo not given) [1-(3-methyl-4-propan-2-ylphenoxy)-3-(1-phenylethylamino)-2-propanol;hydrochloride], the EC50 is above 300 µM.

`COc1ccc2c(c1)-c1c(ssc1=S)C(C)(C)N2S(=O)(=O)c1ccc(C)cc1` [8-methoxy-4,4-dimethyl-5-(4-methylphenyl)sulfonyl-[1,2]dithiolo[3,4-c]quinoline-1-thione] displayed a 50% effective concentration (EC50) above 300 µM.

As for `COc1ccc(/C=C2\Sc3ccc(C(=O)NCCCN4CCCC4)cc3N(C)C2=O)cc1OC` [(2Z)-2-[(3,4-dimethoxyphenyl)methylidene]-4-methyl-3-oxo-N-(3-pyrrolidin-1-ylpropyl)-1,4-benzothiazine-6-carboxamide], the EC50 was above 300 µM.

`O=C(Nc1cccc2c1C(=O)NC2=O)c1ccccc1[N+](=O)[O-]` [N-(1,3-dioxo-4-isoindolyl)-2-nitrobenzamide]: the EC50 was above 300 µM.

`Cn1c(SCc2ccccc2C#N)nnc1-c1ccncc1` [2-(4-Methyl-5-pyridin-4-yl-4H-[1,2,4]triazol-3-ylsulfanylmethyl)-benzonitrile]: the EC50 was above 300 µM.

Compound `O=C(Nc1ncnc2sc3c(c12)CCCC3)c1ccncc1` [N-(5,6,7,8-tetrahydro-[1]benzothiolo[2,3-d]pyrimidin-4-yl)-4-pyridinecarboxamide] registered an EC50 of 42.4 µM.

With `Cc1cc(N2CCC(C)CC2)nc(-c2ccccc2O)n1` [(6E)-6-[6-methyl-4-(4-methyl-1-piperidinyl)-1H-pyrimidin-2-ylidene]-1-cyclohexa-2,4-dienone], the EC50 is above 300 µM.

Consider `COc1cccc(C(=O)Nc2nc(C)cs2)c1`, for which the EC50 was above 300 µM.

In the case of `Cc1c(NC(=O)C(C)OC(=O)COc2ccccc2)c(=O)n(-c2ccccc2)n1C` (stereo not given) [[1-[(1,5-dimethyl-3-oxidanylidene-2-phenyl-pyrazol-4-yl)amino]-1-oxidanylidene-propan-2-yl] 2-phenoxyethanoate], the EC50 was above 300 µM.

`COc1ccc(-c2csc(N(CC3CCCO3)C(=O)c3ccccc3)n2)cc1` (stereo not given) returned an EC50 above 300 µM.

In the case of `COc1ccc(CNCC2COc3ccccc3O2)cc1` (stereo not given) [SMR000588087], the EC50 was above 300 µM.

The compound `O=C1NC(=NNc2ccccc2)SC1=Cc1ccccc1` [SMR000174572] yielded an EC50 above 300 µM.

Regarding `O=C(Nc1ncc(Cc2ccccc2Cl)s1)C1CCCO1` (stereo not given) [Tetrahydro-furan-2-carboxylic acid [5-(2-chloro-benzyl)-thiazol-2-yl]-amide], the EC50 was 27.6 µM.

`O=c1oc2cc(O)ccc2c2c1CCCC2` [3-hydroxy-7,8,9,10-tetrahydro-6H-benzo[c]chromen-6-one] displayed an EC50 above 300 µM.
